# From ChEMBL document CHEMBL1201862, “PubChem BioAssay data set” (2004)
#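 Results reflect a 48-hour exposure of cells in 96-well plates to compound at five concentrations. Abbreviation: GI50, concentration required for 50% inhibition of growth.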 Calls of active or inactive are those of the source. No stated cut-off is given here; in the data, active = GI50 up to about 1.1 µM and inactive = higher.
# Experiments:
# Assay in all cases: NCI-60 cell line screen, 48 h
# CCRF-CEM = tested on: CCRF-CEM
# UO-31 = tested on: UO-31
# U-251 = tested on: U-251
# SK-MEL-28 = tested on: SK-MEL-28
# LOX IMVI = tested on: LOX IMVI
# HL-60 = tested on: HL-60
# MOLT-4 = tested on: MOLT-4
# NCI-H522 = tested on: NCI-H522
# COLO 205 = tested on: COLO 205
# HCT-116 = tested on: HCT-116
# SK-OV-3 = tested on: SK-OV-3
# SNB-19 = tested on: SNB-19
# DMS-114 = tested on: DMS-114
# KM12 = tested on: KM12
# MCF7 = tested on: MCF7
# NCI-H460 = tested on: NCI-H460
# NCI-H226 = tested on: NCI-H226
# BT-549 = tested on: BT-549
# T47D = tested on: T47D
# DU-145 = tested on: DU-145
SMILES,GI50 (CCRF-CEM),GI50 (UO-31),GI50 (U-251),GI50 (SK-MEL-28),GI50 (LOX IMVI),GI50 (HL-60),GI50 (MOLT-4),GI50 (NCI-H522),GI50 (COLO 205),GI50 (HCT-116),GI50 (SK-OV-3),GI50 (SNB-19),GI50 (DMS-114),GI50 (KM12),GI50 (MCF7),GI50 (NCI-H460),GI50 (NCI-H226),GI50 (BT-549),GI50 (T47D),GI50 (DU-145)
O=S1(=O)N2CN3CN(C2)CN1C3,> 31.6 µM (inactive),182 µM (inactive),331 µM (inactive),> 83.6 µM (inactive),36.8 µM (inactive),23.1 µM (inactive),105 µM (inactive),177 µM (inactive),25.4 µM (inactive),21.6 µM (inactive),230 µM (inactive),238 µM (inactive),23.7 µM (inactive),93.8 µM (inactive),56.8 µM (inactive),51.5 µM (inactive),28.1 µM (inactive),,,
COc1c(CC=C(C)C)c(O)c(C(CC(C)C)c2c(O)c(CC=C(C)C)c(O)c(C(C)=O)c2O)c(O)c1C(C)=O (stereo not given),0.278 µM (active),3.08 µM (inactive),0.703 µM (active),0.695 µM (active),1.57 µM (inactive),0.767 µM (active),0.644 µM (active),0.2 µM (active),0.564 µM (active),0.325 µM (active),2.08 µM (inactive),1.15 µM (inactive),0.19 µM (active),0.998 µM (active),0.385 µM (active),0.589 µM (active),1.24 µM (inactive),1.62 µM (inactive),0.385 µM (active),2.32 µM (inactive)
CCOC(=O)COc1ccccc1/C=C1\CCC(CN(C)C)C1=O (stereo not given),1.1 µM (active),16.3 µM (inactive),8 µM (inactive),2.62 µM (inactive),2.22 µM (inactive),0.607 µM (active),2.11 µM (inactive),2.72 µM (inactive),3.9 µM (inactive),3.4 µM (inactive),17.5 µM (inactive),9.2 µM (inactive),10.3 µM (inactive),3.71 µM (inactive),2.57 µM (inactive),10.8 µM (inactive),17.5 µM (inactive),,,
C[C@]12CC[C@H](O)CC1=CC[C@@H]1C2CC[C@]2(C)C(=O)NC(=O)CC12 (stereo not given in full),35.4 µM (inactive),> 100 µM (inactive),> 100 µM (inactive),> 100 µM (inactive),65.9 µM (inactive),> 100 µM (inactive),30.6 µM (inactive),63 µM (inactive),36.8 µM (inactive),53.7 µM (inactive),> 100 µM (inactive),> 100 µM (inactive),> 100 µM (inactive),35.5 µM (inactive),,48.6 µM (inactive),> 100 µM (inactive),,,
